Test results from ChEMBL document CHEMBL1149416, “Design, synthesis, and biological evaluation of BODIPY-erythromycin probes for bacterial ribosomes” (Bioorg Med Chem Lett, 2006).

What was measured:
[1] = tested on: Escherichia coli; test: Inhibition of ribosome function in a coupled transcription and translational assay using Escherichia coli S30 extracts; format: functional, organism-based
[2] = tested on: Escherichia coli; test: Binding affinity to 70S bacterial ribosome isolated from Escherichia coli; format: functional

SMILES	IC50 [1]	Kd [2]
CC[C@H]1OC(=O)[C@H](C)[C@@H](O[C@H]2C[C@@](C)(OC)[C@@H](O)[C@H](C)O2)[C@H](C)[C@@H](O[C@@H]2O[C@H](C)C[C@H](N(C)C)[C@H]2O)[C@](C)(O)C[C@@H](C)C(=O)[C@H](C)[C@@H](O)[C@]1(C)O [ERYTHROMYCIN]	80 nM	
CC[C@H]1OC(=O)[C@H](C)[C@@H](O[C@H]2C[C@@](C)(OC)[C@@H](OC(=O)NCCNC(=O)CCC3=CC4=Cc5c(C)cc(C)n5[B-](F)(F)[N+]4=C3)[C@H](C)O2)[C@H](C)[C@@H](O[C@@H]2O[C@H](C)C[C@H](N(C)C)[C@H]2O)[C@](C)(O)C[C@@H](C)[C@H](NC(=O)OCc2ccccc2)[C@H](C)[C@@H](O)[C@]1(C)O	550 nM	1.5 nM
CC[C@H]1OC(=O)[C@H](C)[C@@H](O[C@H]2C[C@@](C)(OC)[C@@H](O)[C@H](C)O2)[C@H](C)[C@@H](O[C@@H]2O[C@H](C)C[C@H](N(C)C)[C@H]2O)[C@](C)(O)C[C@@H](C)[C@H](NC(=O)CCC2=CC3=Cc4c(C)cc(C)n4[B-](F)(F)[N+]3=C2)[C@H](C)[C@@H](O)[C@]1(C)O	1500 nM	30 nM
CC[C@H]1OC(=O)[C@H](C)[C@@H](O[C@H]2C[C@@](C)(OC)[C@@H](OC(=O)NCCNC(=O)CCC3=CC4=Cc5c(C)cc(C)n5[B-](F)(F)[N+]4=C3)[C@H](C)O2)[C@H](C)[C@@H](O[C@@H]2O[C@H](C)C[C@H](N(C)C)[C@H]2O)[C@](C)(OC)C[C@@H](C)C(=O)[C@H](C)[C@@H](O)[C@]1(C)O	160 nM	< 0.5 nM
